# Target: Human immunodeficiency virus type 1 integrase (Human immunodeficiency virus 1, UniProt Q7ZJM1)
# Assay: Inhibitory activity against HIV-1 integrase
# Sequence of Human immunodeficiency virus type 1 integrase (Q7ZJM1 whole entry): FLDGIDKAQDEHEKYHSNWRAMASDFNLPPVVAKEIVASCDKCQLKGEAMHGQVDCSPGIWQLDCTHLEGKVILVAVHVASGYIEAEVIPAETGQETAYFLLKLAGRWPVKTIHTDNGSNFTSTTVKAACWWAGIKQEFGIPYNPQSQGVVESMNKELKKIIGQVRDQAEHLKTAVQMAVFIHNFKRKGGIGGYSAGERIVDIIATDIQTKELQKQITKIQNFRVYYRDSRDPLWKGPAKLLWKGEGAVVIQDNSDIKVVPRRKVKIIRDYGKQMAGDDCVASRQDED
row,Compound,IC50 [µM]
1,CO[C@H]1O[C@H](COC(=O)/C=C/c2ccc(O)c(O)c2)[C@@H](OC(=O)/C=C/c2ccc(O)c(O)c2)[C@H](OC(=O)/C=C/c2ccc(O)c(O)c2)[C@H]1OC(=O)/C=C/c1ccc(O)c(O)c1,> 119
2,CO[C@@H]1O[C@H](COC(=O)/C=C/c2ccc(O)c(O)c2)[C@@H](O)[C@H](OC(=O)/C=C/c2ccc(O)c(O)c2)[C@H]1O,35.1
3,CO[C@@H]1O[C@H](COC(=O)/C=C/c2ccc(O)c(O)c2)[C@@H](O)[C@H](O)[C@H]1OC(=O)/C=C/c1ccc(O)c(O)c1,30.5
4,CO[C@H]1O[C@H](CO)[C@@H](O)[C@H](OC(=O)/C=C/c2ccc(O)c(O)c2)[C@H]1OC(=O)/C=C/c1ccc(O)c(O)c1,29.1
5,CO[C@H]1O[C@H](COC(=O)/C=C/c2ccc(O)c(O)c2)[C@@H](O)[C@H](OC(=O)/C=C/c2ccc(O)c(O)c2)[C@H]1O,82.4
6,COC1O[C@H](CO)[C@@H](O)[C@H](OC(=O)c2cc(O)c(O)c(O)c2)[C@H]1OC(=O)c1cc(O)c(O)c(O)c1 (stereo partly specified),5.4
7,CO[C@@H]1O[C@H](CO)[C@@H](O)[C@H](OC(=O)/C=C/c2ccc(O)c(O)c2)[C@H]1OC(=O)/C=C/c1ccc(O)c(O)c1,31.8
8,CO[C@@H]1O[C@H](COC(=O)/C=C/c2ccc(O)c(O)c2)[C@@H](OC(=O)/C=C/c2ccc(O)c(O)c2)[C@H](OC(=O)/C=C/c2ccc(O)c(O)c2)[C@H]1OC(=O)/C=C/c1ccc(O)c(O)c1,89.6
9,CO[C@H]1O[C@H](COC(=O)/C=C/c2ccc(O)c(O)c2)[C@@H](O)[C@H](O)[C@H]1OC(=O)/C=C/c1ccc(O)c(O)c1,70
10,C[C@@H]1O[C@@H](O[C@@H]2[C@@H](O)[C@H](OCCc3ccc(O)c(O)c3)O[C@H](CO)[C@H]2OC(=O)/C=C/c2ccc(O)c(O)c2)[C@H](O)[C@H](O)[C@H]1O [ACETOSIDE],7.8
11,COc1cc(/C=C/C(=O)CC(=O)/C=C/c2ccc(O)c(OC)c2)ccc1O [CURCUMIN],57.5

# From ChEMBL document CHEMBL1133281, “Synthesis and HIV-1 integrase inhibitory activities of caffeoylglucosides” (Bioorg Med Chem Lett, 2000)
